Test results: PMC8262356, “SLC26A6-selective inhibitor identified in a small-molecule screen blocks fluid absorption in small intestine” (JCI Insight, 2021)

Target: T1, ENaC (Homo sapiens, UniProt P37088+P51168+P51170)
T1 construct: endogenous in cells; host or cells: well-differentiated human bronchial epithelial (HBE) cells at air-liquid interface
T1 sequence (P37088 1-669): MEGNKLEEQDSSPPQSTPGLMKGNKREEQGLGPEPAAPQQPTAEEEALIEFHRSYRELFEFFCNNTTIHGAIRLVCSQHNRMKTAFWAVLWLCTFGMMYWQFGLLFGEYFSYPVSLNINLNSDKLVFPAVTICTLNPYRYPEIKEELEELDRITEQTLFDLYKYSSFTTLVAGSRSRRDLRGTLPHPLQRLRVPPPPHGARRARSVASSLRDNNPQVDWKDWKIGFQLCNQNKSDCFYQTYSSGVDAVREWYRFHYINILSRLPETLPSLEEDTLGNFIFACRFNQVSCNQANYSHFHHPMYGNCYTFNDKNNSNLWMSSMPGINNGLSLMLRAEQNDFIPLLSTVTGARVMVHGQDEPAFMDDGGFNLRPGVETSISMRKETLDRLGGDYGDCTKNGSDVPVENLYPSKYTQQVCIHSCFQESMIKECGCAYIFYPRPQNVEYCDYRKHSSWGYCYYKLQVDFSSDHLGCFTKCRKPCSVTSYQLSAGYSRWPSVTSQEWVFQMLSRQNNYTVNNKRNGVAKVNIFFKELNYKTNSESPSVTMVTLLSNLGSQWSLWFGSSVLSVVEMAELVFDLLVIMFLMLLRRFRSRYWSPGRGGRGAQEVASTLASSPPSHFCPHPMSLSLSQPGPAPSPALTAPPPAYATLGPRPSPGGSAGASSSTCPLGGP
T1 sequence (P51168 1-640): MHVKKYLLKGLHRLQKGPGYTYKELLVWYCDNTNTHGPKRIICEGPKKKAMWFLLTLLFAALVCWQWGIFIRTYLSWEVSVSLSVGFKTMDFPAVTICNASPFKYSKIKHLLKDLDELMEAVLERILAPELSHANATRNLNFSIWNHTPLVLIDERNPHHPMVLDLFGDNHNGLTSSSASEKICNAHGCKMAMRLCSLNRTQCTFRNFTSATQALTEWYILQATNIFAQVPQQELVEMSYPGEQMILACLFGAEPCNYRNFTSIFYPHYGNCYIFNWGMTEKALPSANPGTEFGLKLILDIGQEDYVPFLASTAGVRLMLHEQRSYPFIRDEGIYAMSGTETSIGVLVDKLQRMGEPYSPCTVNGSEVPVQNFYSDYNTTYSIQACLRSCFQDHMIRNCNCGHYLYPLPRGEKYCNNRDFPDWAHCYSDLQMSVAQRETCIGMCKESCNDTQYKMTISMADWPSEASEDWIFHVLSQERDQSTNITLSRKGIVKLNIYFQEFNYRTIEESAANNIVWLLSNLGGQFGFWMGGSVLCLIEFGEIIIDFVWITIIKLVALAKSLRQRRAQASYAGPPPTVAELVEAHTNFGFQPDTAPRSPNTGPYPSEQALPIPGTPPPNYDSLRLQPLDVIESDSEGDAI
T1 sequence (P51170 1-649): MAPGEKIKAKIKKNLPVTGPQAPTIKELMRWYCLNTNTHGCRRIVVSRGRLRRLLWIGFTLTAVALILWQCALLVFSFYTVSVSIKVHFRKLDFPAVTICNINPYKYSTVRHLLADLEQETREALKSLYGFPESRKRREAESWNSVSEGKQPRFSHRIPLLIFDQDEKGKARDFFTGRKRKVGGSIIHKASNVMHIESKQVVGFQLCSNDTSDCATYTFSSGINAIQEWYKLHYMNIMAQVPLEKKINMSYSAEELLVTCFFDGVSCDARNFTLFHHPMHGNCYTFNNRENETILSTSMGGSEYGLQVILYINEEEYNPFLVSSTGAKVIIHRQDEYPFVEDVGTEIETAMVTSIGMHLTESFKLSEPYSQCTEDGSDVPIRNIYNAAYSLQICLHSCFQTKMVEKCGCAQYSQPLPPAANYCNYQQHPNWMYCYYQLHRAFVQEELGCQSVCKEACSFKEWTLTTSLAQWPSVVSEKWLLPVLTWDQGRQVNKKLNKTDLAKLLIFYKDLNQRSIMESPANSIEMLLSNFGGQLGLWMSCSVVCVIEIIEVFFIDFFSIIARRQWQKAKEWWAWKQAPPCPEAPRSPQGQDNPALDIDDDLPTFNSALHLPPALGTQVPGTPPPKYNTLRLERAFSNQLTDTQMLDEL
Test: Short-circuit current in well-differentiated HBE cells, amiloride response
Type: cell-based
Conditions: 25 μM pretreatment
Description: PAT1inh-B01 selectivity was studied by testing its effects on related SLC26A family anion transporters and the Cl^– channel TMEM16A. These measurements used a similar Cl^–/I^– exchange protocol, but FRT cells separately expressed each of the SLC26A family members or TMEM16A. […] PAT1inh-B01 selectivity was also tested by short-circuit current (Isc) in well-differentiated human bronchial epithelial (HBE) cells, which have a complex ion transport mechanism that includes cystic fibrosis transmembrane conductance regulator (CFTR), epithelial Na^+ channel (ENaC), and Ca^+2-activated chloride channels (CaCCs) ([13]). […] Potential PAT1inh-B01 cytotoxicity was studied in FRT cells.
Figure 3 PAT1inh-B01 selectivity and cytotoxicity. […] Cl^–/I^– exchange or I^– influx measured in FRT cells coexpressing YFP and SLC26A isoforms or TMEM16A, with data shown for 25 μM PAT1inh-B01, DMSO vehicle control, and 500 μM niflumic acid (positive control for SLC26A transporters) or 10 μM TMinh-23 (positive control for TMEM16A). […] (C) (left) Short-circuit current (Isc) in well-differentiated HBE cells measured in the absence (top) and presence (bottom) of 25 μM PAT1inh-B01. […]
YFP-based cellular assays of slc26a3, slc26a4, SLC26A9, and TMEM16A function were performed as described previously ([7]). […] The activities of ENaC, CFTR, and CaCC were determined using well-differentiated HBE cells as described previously ([13]). […]

Cc1c(Br)c(C(F)(F)F)nn1CC(=O)N1CCc2nc3cc(-c4ccccc4)[nH]n3c(=O)c2C1 [PAT1inh-B01]
effect on ENaC activity (Isc response to amiloride): no significant effect
